The values below are quoted from earlier work in article PMC8198792, “Prediction of Anticancer Peptides with High Efficacy and Low Toxicity by Hybrid Model Based on 3D Structure of Peptides” (International Journal of Molecular Sciences, 2021).

Where two headings read alike, the source gives them in different places.

This data set concerns cancer cell lines. On the set-up: method as in 6 sources, ref CancerPPD [45] and SATPdb ||| ref CancerPPD/SATPdb ||| ref CancerPPD, SATPdb, Swissprot (PDB) ||| ref CancerPPD/SATPdb/Swissprot(PDB) ||| ref CancerPPD / SATPdb ||| ... The settings on record: cited from earlier work. An excerpt: Supplement ijms-22-05630-s001.zip/ACPs(seguence).xlsx, sheet "D1" | column: Activity || Supplement ijms-22-05630-s001.zip/ACPs(seguence).xlsx, sheet "D2" | column: Activity || Supplement ijms-22-05630-s001.zip/ACPs(seguence).xlsx, sheet "D3" | column: Activity || (+ 2 further places)

Setting [1] is: ACPs dataset D1, label 1 = ACP, 0 = non-ACP (non-anticancer AMPs from SATPdb), ref CancerPPD/SATPdb.
The mark [2] stands for this setting: ACPs dataset D4 (sheet "D4"), label 1 = ACP (CancerPPD ID), 0 = non-ACP (non-anticancer AMP, SATPdb ID), ref CancerPPD [45] and SATPdb.
Where [3] appears, read: ACPs dataset D1, 1 = ACP (positive), 0 = non-ACP (negative), label taken from databases, ref CancerPPD [45] and SATPdb.
Setting [4] is: ACPs dataset D4 (sheet "D4"), label 1 = ACP, experimentally validated ACPs, ref CancerPPD [45] and SATPdb.
Where [5] appears, read: ACPs dataset D5 (sheet "D5"), label 1 = ACP (positive set), sequences with CancerPPD/SATPdb ID, ref CancerPPD, SATPdb.
Where [6] appears, read: ACPs dataset sheet D2, 1 = ACP (CancerPPD/SATPdb ID), 0 = non-ACP (Swissprot/PDB ID), ref CancerPPD, SATPdb, Swissprot (PDB).
[7] abbreviates: ACPs dataset D4 (sheet "D4"), label 1 = ACP, 0 = non-ACP, ref CancerPPD / SATPdb.
[8] abbreviates: ACPs dataset D5 (sheet "D5"), label 1 = ACP (positive set), 0 = non-ACP (negative set), ref CancerPPD [45] and SATPdb.
Setting [9] is: ACPs dataset D3 (supplement sheet "D3"), 1 = ACP, 0 = non-ACP, ref CancerPPD [45] and SATPdb.

With FLPLIGKILGTILGK [satpdb11777], the Activity is listed as 0 under setting [1] and 0 under setting [2].

Turning to FLPMLAGLAASMVPKLVCLITKKC [satpdb11064], the Activity reads like this: under setting [3], 0; under setting [2], 0.

For FLPVIAGLAAKVLPKLFCAITKKC [satpdb12195], the Activity by setting is: under setting [1], 0; under setting [2], 0.

Regarding “FLPVIAGVAANFLPKLFCAISKKC [compound 4361]”, the Activity is listed as 1 under setting [3], 1 under setting [4], 1 under setting [5] and 1 under setting [6].

Turning to FLPVVAGLAAKVLPSIICAVTKKC [satpdb12902], the Activity is recorded as 0 under setting [1] and 0 under setting [7].

For the sequence “FLSLIPHAIN AVSAIAKHN [2JQ0 NMR - A 1-19]”, the Activity is given as 0 under setting [8] and 0 under setting [6].

Turning to FLSLIPSLVGGSISAFK [compound 3123], the Activity was 1 under setting [9], 1 under setting [4] and 1 under setting [5].

For FLSSIGKILGNLL [satpdb11843], the Activity is recorded as 0 under setting [1] and 0 under setting [2].

As to FLWWLFKWAWK [compound 1728], the Activity reads like this: under setting [3], 1; under setting [9], 1; under setting [4], 1; under setting [5], 1; under setting [6], 1.

With FVDLKKIANIINSIF [compound 2851], the Activity is 1 under setting [9], 1 under setting [2] and 1 under setting [8].

In the case of FVQWFSKFLGRIL [6GS5 NMR - A 1-13], the Activity under setting [8] was 0.

For the sequence “GAIKDALKGAAKTVAVELLKKAQCKLEKTC [satpdb13113]”, the Activity runs as follows: under setting [1], 0; under setting [7], 0.

Consider “GASCGETCFTGICFTAGCSCNPWPTCTRN [compound 4369]”, for which the Activity runs as follows: under setting [3], 1; under setting [4], 1; under setting [5], 1; under setting [6], 1.

As to “GCPRILMRCK QDSDCLAGCV CGPNGFCGSP [1H9H X-ray 1.50 I 1-30]”, the Activity is reported as 0 under setting [8] and 0 under setting [6].

In the case of GCSRWIIGIHGQICRD [satpdb12437], the Activity is, setting by setting: under setting [1], 0; under setting [2], 0.

Turning to GCVLYPWC [2M6C NMR - A 1-8], the Activity under setting [8] was 0 and the Activity under setting [6] is given as 0.

As for GDVIDTDRDIDR [satpdb14246], the Activity was 1 under setting [3], 1 under setting [4], 1 under setting [5] and 1 under setting [6].

“GECEQCFSDGGDCTTCFNNGTGPCANCLAGYPAGCSNSDCTAFLSQCYGGC [1HA8 NMR - A 1-51]”: the Activity is on record as 0 (ACPs dataset D2 (supplement ACPs(seguence).xlsx, sheet D2), dataset label 1/0 (ACP / non-ACP), entries identified by Swissprot(PDB ID), ref CancerPPD/SATPdb/Swissprot(PDB)); 0 (ACPs dataset D5, sheet "D5", label 1 = ACP, 0 = non-ACP, ref CancerPPD [45] and SATPdb).

For “GFGCPFNQYECHAHCSGVPGYKGGYCKGLFKQTCNCY [satpdb12844]”, the Activity is reported as 0 under setting [1] and 0 under setting [7].

As for “GFGCPGNQLKCNNHCKSISCRAGYCDAATLWLRCTCTDCNGKK [satpdb11046]”, the Activity by setting is: under setting [3], 0; under setting [2], 0.

As for GFGMALKLLKKVL [compound 3586], the Activity is, setting by setting: under setting [9], 1; under setting [2], 1; under setting [8], 1.

Turning to GFGMALOLLOOVL [compound 3597], the Activity is, setting by setting: under setting [9], 1; under setting [2], 1; under setting [8], 1.

For the sequence GFGMALRLLRRVL [compound 3598], the Activity under setting [9] is given as 1, the Activity under setting [2] is 1 and the Activity under setting [8] was 1.

With GFHDHGPCDPPSHK [satpdb16441], the Activity under setting [3] is given as 1, the Activity under setting [4] is 1, the Activity under setting [5] is listed as 1 and the Activity under setting [6] is on record as 1.

As for GFKDLLKGAAKALVKTVLF [compound 4388], the Activity under setting [3] is on record as 1, the Activity under setting [4] is 1, the Activity under setting [5] is listed as 1 and the Activity under setting [6] was 1.

On to “GFLDTFKNLALNAAKSAGVSVLNSLSCKLFKTC [satpdb12796]”, for which the Activity by setting is: under setting [1], 0; under setting [7], 0.

Turning to GFLSILKKVLP [satpdb11215], the Activity reads like this: under setting [3], 0; under setting [2], 0.

As for GFSPNLPGKGLRIS [satpdb13263], the Activity is 0 under setting [1] and 0 under setting [7].

Regarding “GGLKKLGKKLEGAGKRVFNAAEKALPVVAGAKALG [satpdb11024]”, the Activity by setting is: under setting [3], 0; under setting [2], 0.

As to “GGLKKLGKKLEGVGKRVFKASEKALPVLTGYKAIG [satpdb10158]”, the Activity is 0 under setting [3] and 0 under setting [2].

Consider “GGLRSLGRKILRAWKKYGPIIVPIIRIG [compound 4394]”, for which the Activity under setting [3] was 1, the Activity under setting [4] is 1, the Activity under setting [5] was 1 and the Activity under setting [6] was 1.

As for “GIACGESCVFLGCFIPGCSCKSKVCYFN [compound 4397]”, the Activity by setting is: under setting [3], 1; under setting [4], 1; under setting [5], 1; under setting [6], 1.

On to GIFGKILGAGKKVLCGLSGLC [satpdb11792], for which the Activity under setting [1] is 0 and the Activity under setting [2] is given as 0.

With GIFLKVLGVGKKVLCGVSGLC [satpdb12520], the Activity reads like this: under setting [1], 0; under setting [2], 0.

Take “GIFSKFGGKAIKNLFIKGAKNIGKEVGMDVIRTGIDVAGCKIKGEC [satpdb10976]”: the Activity is, setting by setting: under setting [3], 0; under setting [2], 0.

Take “GIFSLFKAGAKFFGKHLLKQAGKAGAEHLACKATNQC [satpdb10483]”: the Activity is, setting by setting: under setting [3], 0; under setting [2], 0.

As for “GIFSLIKGAAKLITKTVAKEAGKTGLELMACKVTNQC [satpdb12414]”, the Activity is, setting by setting: under setting [1], 0; under setting [2], 0.

On to “GIFSSRKCKTPSKTFKGYCTRDSNCDTSCRYEGYPAGD [satpdb10659]”, for which the Activity runs as follows: under setting [3], 0; under setting [2], 0.

With “GIGGVLLSAGKAALKGLAKVLAEKYAN [compound 4400]”, the Activity by setting is: under setting [3], 1; under setting [4], 1; under setting [5], 1; under setting [6], 1.

With GIGKFLHAAKKFAKAFVAEIMNS [compound 1354], the Activity is reported as 1 under setting [9], 1 under setting [2] and 1 under setting [8].

GIGKFLHSAKKFAKAFVAEIMNS [compound 1047]: the Activity is 1 under setting [9], 1 under setting [2] and 1 under setting [8].

In the case of GIGKFLHSAKKFGKAFVGEIMNS [compound 1116], the Activity under setting [9] is listed as 1, the Activity under setting [2] is recorded as 1 and the Activity under setting [8] is given as 1.

Take “GIGKFLHSAKKFGKAFVGEIMNSKKKKKKKKKK [satpdb13107]”: the Activity is reported as 0 under setting [1] and 0 under setting [7].

Consider GIGKFLKKAKKFAKAFVKIINN [compound 1117], for which the Activity is 1 under setting [9], 1 under setting [2] and 1 under setting [8].

As for GIGKLFLHAAKKFAKAFVAEKMNS [satpdb10222], the Activity was 0 under setting [3] and 0 under setting [2].

In the case of GIIKKIIIKKIIIKKIIIKKI [compound 1434], the Activity under setting [3] was 1, the Activity under setting [4] is reported as 1, the Activity under setting [5] is on record as 1 and the Activity under setting [6] is listed as 1.

In the case of GIIKKIIKKI [compound 2839], the Activity by setting is: under setting [9], 1; under setting [2], 1; under setting [8], 1.

For GIIKKIIKKIIKKI [compound 2840], the Activity is reported as 1 under setting [9], 1 under setting [2] and 1 under setting [8].

For the sequence “GIINTLQKYYSRVRGGRSAVLSSLPKEEQIGKSSTRGRKSSRRKK [satpdb11018]”, the Activity is, setting by setting: under setting [3], 0; under setting [2], 0.

As for “GILDKLKEFGISAARGVAQSLLNTTASCKLAKTC [satpdb13132]”, the Activity is, setting by setting: under setting [1], 0; under setting [7], 0.

Take “GILDSFKQFAKGVGKDLIKGAAQGVLSTMSCKLAKTC [satpdb11305]”: the Activity runs as follows: under setting [3], 0; under setting [2], 0.
